{
  "source": "patent US10144706B2",
  "about": "(BRISTOL-MYERS SQUIBB COMPANY, priority 2016, dated 2018)",
  "note": "Where a name gives a salt, the structure may show the parent alone.",
  "data": [
    {"target": "T1, PD-1/PD-L1 interaction (PD-1-Ig / PD-L1-His) (Homo sapiens, UniProt Q9NZQ7)", "T1 construct": "hPDL1(18-239)-TVMV-His; TVMV protease site linker (C); made in house; host or cells: HEK293T", "T1 sequence (Q9NZQ7 with tags, fused parts or gaps)": "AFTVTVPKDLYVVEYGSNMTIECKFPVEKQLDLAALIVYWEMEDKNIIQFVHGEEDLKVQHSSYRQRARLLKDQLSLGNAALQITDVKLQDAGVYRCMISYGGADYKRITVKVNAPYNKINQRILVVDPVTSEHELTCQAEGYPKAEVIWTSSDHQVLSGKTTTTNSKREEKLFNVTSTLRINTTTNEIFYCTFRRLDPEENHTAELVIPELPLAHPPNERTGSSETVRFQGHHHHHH", "experiment": "PD-1/PD-L1 Homogenous Time-Resolved Fluorescence (HTRF) binding assay", "conditions": "IC50 range class; PD-L1-His 10 nM, PD-1-Ig 20 nM; read-out: Range or IC50", "in_short": "(§1)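 HTRF detection used 1 nM europium-cryptate anti-Ig and 20 nM APC anti-His. Compounds first saw 10 nM PD-L1-His for 15 min, and 20 nM PD-1-Ig was then added for another 15 min. Buffer was dPBS plus 0.1% BSA and 0.05% Tween-20. All concentrations are final.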", "units": {"IC50": "nM"}, "values": [
      {"smiles": "Cc1c(COc2cc(OCc3cc(F)cc(F)c3)c(CN(C)[C@@H](CO)C(=O)O)cc2Cl)cccc1-c1cccc(COc2cc(OCc3cc(F)cc(F)c3)c(CN(C)[C@@H](CO)C(=O)O)cc2Cl)c1C", "note": "[Example 5013, (2S,2′S)-2,2′-((((((2,2′-dimethyl-[1,1′-biphenyl]-3,3′-diyl)bis(methylene))bis(oxy))bis(5-chloro-2-((3,5-difluorobenzyl)oxy)-4,1-phenylene))bis(methylene))bis(methylazanediyl))bis(3-hydroxypropanoic acid)]", "IC50": "20.1 to 90"},
      {"smiles": "Cc1c(OCCCN(C)CCc2ccccc2)cccc1-c1cccc(OCCCN2CC[C@@H](O)C2)c1C", "note": "[Example 2110, (R)-1-(3-((2,2′-dimethyl-3′-(3-(methyl(phenethyl)amino)propoxy)-[1,1′-biphenyl]-3-yl)oxy)propyl)pyrrolidin-3-ol]", "IC50": "90.1 to 1000"},
      {"smiles": "Cc1c(COc2cc(OCc3cncc(C#N)c3)c(Cl)cc2Cl)cccc1-c1cccc(COc2cc(OCc3cncc(C#N)c3)c(CN[C@H](C(=O)O)[C@@H](C)O)cc2Cl)c1C", "note": "[Example 70010]", "IC50": "90.1 to 1000"},
      {"smiles": "Cc1c(COc2cc(OCc3ccc(-n4cccn4)nc3)c(CN(C)[C@@H](CCO)C(=O)O)cc2Cl)cccc1-c1cccc(COc2cc(OCc3ccc(-n4cccn4)nc3)c(CN(C)[C@@H](CCO)C(=O)O)cc2Cl)c1C", "note": "[Example 5025, (2S,2′S)-2,2′-((((((2,2′-dimethyl-[1,1′-biphenyl]-3,3′-diyl)bis(methylene))bis(oxy))bis(2-((6-(1H-pyrazol-1-yl)pyridin-3-yl)methoxy)-5-chloro-4,1-phenylene))bis(methylene))bis(methylazanediyl))bis(4-hydroxybutanoic acid)]", "IC50": "0.04 to 20"},
      {"smiles": "Cc1c(OCCCN[C@@H](c2ccccc2)[C@H](O)CO)cccc1-c1cccc(OCCCN2CC[C@@H](O)C2)c1C", "note": "[Example 2091, (2S,3S)-3-((3-((3′-(3-((R)-3-hydroxypyrrolidin-1-yl)propoxy)-2,2′-dimethyl-[1,1′-biphenyl]-3-yl)oxy)propyl)amino)-3-phenylpropane-1,2-diol]", "IC50": "20.1 to 90"},
      {"smiles": "Cc1c(OCCCN2CC[C@@H](O)C2)cccc1-c1cccc(C(=O)NCCCCN2CC[C@@H](O)C2)c1C", "note": "[Example 3008, N-(4-((R)-3-hydroxypyrrolidin-1-yl)butyl)-3′-(3-((R)-3-hydroxypyrrolidin-1-yl)propoxy)-2,2′-dimethyl-[1,1′-biphenyl]-3-carboxamide]", "IC50": "1000 to 10000"},
      {"smiles": "Cc1c(OCCCNCC(O)C(C)(C)O)cccc1-c1cccc(OCCCNCC(O)C(C)(C)O)c1C", "note": "(mixture of isomers) [Example 2029, 4,4′-((((2,2′-dimethyl-[1,1′-biphenyl]-3,3′-diyl)bis(oxy))bis(propane-3,1-diyl))bis(azanediyl))bis(2-methylbutane-2,3-diol)]", "IC50": "0.04 to 20"},
      {"smiles": "Cc1c(COc2cc(OCc3cc(F)cc(F)c3)c(CNC(CO)CO)cc2Cl)cccc1-c1cccc(COc2cc(OCc3cc(F)cc(F)c3)c(CNC(CO)CO)cc2Cl)c1C", "note": "[Example 5003, 2,2′-((((((2,2′-dimethyl-[1,1′-biphenyl]-3,3′-diyl)bis(methylene))bis(oxy))bis(5-chloro-2-((3,5-difluorobenzyl)oxy)-4,1-phenylene))bis(methylene))bis(azanediyl))bis(propane-1,3-diol)]", "IC50": "90.1 to 1000"},
      {"smiles": "Cc1cc(OCCCN2CC[C@@H](O)C2)ccc1-c1cccc(OCCCCN2CC[C@@H](O)C2)c1C", "note": "[Example 3004, (R)-1-(3-((3′-(4-((R)-3-hydroxypyrrolidin-1-yl)butoxy)-2,2′-dimethyl-[1,1′-biphenyl]-4-yl)oxy)propyl) pyrrolidin-3-ol]", "IC50": "1000 to 10000"},
      {"smiles": "Cc1c(COc2cc(OCc3cncc(C#N)c3)c(Cl)cc2Cl)cccc1-c1cccc(COc2cc(OCc3cncc(C#N)c3)c(CNC(C)(CO)C(=O)O)cc2Cl)c1C", "note": "(centres unmarked) [Example 70030]", "IC50": "20.1 to 90"},
      {"smiles": "Cc1c(COc2cc(OCc3cncc(C#N)c3)c(CNC[C@H](O)CC(=O)O)cc2Cl)cccc1-c1cccc(COc2cc(OCc3cncc(C#N)c3)c(CNC[C@H](O)CC(=O)O)cc2Cl)c1C", "note": "[Example 40110]", "IC50": "0.04 to 20"},
      {"smiles": "COC(=O)[C@@H]1CCCCN1Cc1cc(Cl)c(OCc2cccc(-c3cccc(COc4cc(OCc5cncc(C#N)c5)c(CN5CCCC[C@H]5C(=O)OC)cc4Cl)c3C)c2C)cc1OCc1cncc(C#N)c1", "note": "[Example 40300]", "IC50": "90.1 to 1000"},
      {"smiles": "Cc1c(OCCCNC[C@H](O)CO)cccc1-c1cccc(OCCCNC[C@H](O)CO)c1C", "note": "[Example 2079, (2S,2′S)-3,3′-((((2,2′-dimethyl-[1,1′-biphenyl]-3,3′-diyl)bis(oxy))bis(propane-3,1-diyl))bis(azanediyl))bis(propane-1,2-diol)]", "IC50": "0.04 to 20"},
      {"smiles": "N#Cc1cncc(COc2cc(OCc3cccc(-c4cccc(COc5cc(OCc6cncc(C#N)c6)c(CN6CCCCC6)cc5Cl)c4)c3)c(Cl)cc2CN2CCCCC2)c1", "note": "[Example 40060]", "IC50": "20.1 to 90"},
      {"smiles": "Cc1c(OCCCN2CCN(CCO)CC2)cccc1-c1cccc(OCCCN2CC[C@@H](O)C2)c1C", "note": "[Example 2063, (R)-1-(3-((3′-(3-(4-(2-hydroxyethyl)piperazin-1-yl)propoxy)-2,2′-dimethyl-[1,1′-biphenyl]-3-yl)oxy)propyl)pyrrolidin-3-ol]", "IC50": "20.1 to 90"},
      {"smiles": "Cc1c(COc2cc(OCc3ccc(-n4cccn4)nc3)c(CN(C)C(CO)CO)cc2Cl)cccc1-c1cccc(COc2cc(OCc3ccc(-n4cccn4)nc3)c(CN(C)C(CO)CO)cc2Cl)c1C", "note": "[Example 5028, 2,2′-((((((2,2′-dimethyl-[1,1′-biphenyl]-3,3′-diyl)bis(methylene))bis(oxy))bis(2-((6-(1H-pyrazol-1-yl)pyridin-3-yl)methoxy)-5-chloro-4,1-phenylene))bis(methylene))bis(methylazanediyl))bis(propane-1,3-diol)]", "IC50": "90.1 to 1000"},
      {"smiles": "C[C@](CO)(NCc1cc(Cl)c(OCc2cccc(-c3cccc(COc4cc(OCc5cncc(C#N)c5)c(CN[C@](C)(CO)C(=O)O)cc4Cl)c3Cl)c2Cl)cc1OCc1cncc(C#N)c1)C(=O)O", "note": "[Example 41190]", "IC50": "0.04 to 20"},
      {"smiles": "COC(=O)C1CCN(Cc2cc(Cl)c(OCc3cccc(-c4cccc(COc5cc(OCc6cncc(C#N)c6)c(CN6CCC(C(=O)OC)C(O)C6)cc5Cl)c4C)c3C)cc2OCc2cncc(C#N)c2)CC1O", "note": "(centres unmarked) [Example 40310]", "IC50": "20.1 to 90"},
      {"smiles": "Cc1c(OCCCNC2CCN(C)CC2)cccc1-c1cccc(OCCCN2CC[C@@H](O)C2)c1C", "note": "[Example 2066, (R)-1-(3-((2,2′-dimethyl-3′-(3-((1-methylpiperidin-4-yl)amino)propoxy)-[1,1′-biphenyl]-3-yl)oxy)propyl)pyrrolidin-3-ol]", "IC50": "90.1 to 1000"},
      {"smiles": "Cc1c(COc2cc(OCc3cncc(C#N)c3)c(CNC(CCO)C(=O)O)cc2Cl)cccc1-c1cccc(COc2cc(OCc3cncc(C#N)c3)c(CN(CC3CCCO3)C(CCO)C(=O)O)cc2Cl)c1C", "note": "(centres unmarked) [Example 41030]", "IC50": "0.04 to 20"},
      {"smiles": "Cc1c(OCCCN2CC[C@@H](O)C2)cccc1-c1cccc(C(=O)NCCN2CC[C@@H](O)C2)c1C", "note": "[Example 3015, N-(2-((R)-3-hydroxypyrrolidin-1-yl)ethyl)-3′-(3-((R)-3-hydroxypyrrolidin-1-yl)propoxy)-2,2′-dimethyl-[1,1′-biphenyl]-3-carboxamide]", "IC50": "> 10000"},
      {"smiles": "COc1cc(OCc2cccc(-c3cccc(COc4cc(OC)c(CNCc5cncnc5)cc4Cl)c3C)c2C)c(Cl)cc1CNCc1cncnc1", "note": "[Example 5033, 1,1′-((((2,2′-dimethyl-[1,1′-biphenyl]-3,3′-diyl)bis(methylene))bis(oxy))bis(5-chloro-2-methoxy-4,1-phenylene))bis(N-(pyrimidin-5-ylmethyl)methanamine)]", "IC50": "0.04 to 20"},
      {"smiles": "COc1cc(OCc2cccc(-c3cccc(COc4cc(OC)c(CNCc5cc[nH]n5)cc4Cl)c3C)c2C)c(Cl)cc1CNCc1cc[nH]n1", "note": "[Example 5032, 1,1′-((((2,2′-dimethyl-[1,1′-biphenyl]-3,3′-diyl)bis(methylene))bis(oxy))bis(5-chloro-2-methoxy-4,1-phenylene))bis(N-((1H-pyrazol-3-yl)methyl)methanamine)]", "IC50": "0.04 to 20"},
      {"smiles": "Cc1cc(OCc2cccc(-c3cccc(COc4cc(OCc5cncc(C#N)c5)c(CN5CCCC[C@H]5C(=O)O)cc4Cl)c3C)c2C)c(Cl)cc1CN1CCCC[C@H]1C(=O)O", "note": "[Example 5503, (S)-1-(4-((3′-((4-(((S)-2-carboxypiperidin-1-yl)methyl)-2-chloro-5-((5-cyanopyridin-3-yl)methoxy)phenoxy)methyl)-2,2′-dimethyl-[1,1′-biphenyl]-3-yl)methoxy)-5-chloro-2-methylbenzyl)piperidine-2-carboxylic acid]", "IC50": "0.04 to 20"},
      {"smiles": "Cc1c(OCCCNCCCN2CCOCC2)cccc1-c1cccc(OCCCN2CC[C@@H](O)C2)c1C", "note": "[Example 2021, (R)-1-(3-((2,2′-dimethyl-3′-(3-((3-morpholinopropyl)amino)propoxy)-[1,1′-biphenyl]-3-yl)oxy)propyl)pyrrolidin-3-ol]", "IC50": "20.1 to 90"},
      {"smiles": "Cc1c(OCCCN2CC[C@@H](O)C2)cccc1-c1cccc(OCCCN2CC[C@@H](O)C2)c1C(F)(F)F", "note": "[Example 3026, (3R,3′R)-1,1′-(((2-methyl-2′-(trifluoromethyl)-[1,1′-biphenyl]-3,3′-diyl)bis(oxy))bis(propane-3,1-diyl))bis(pyrrolidin-3-ol), 2 TFA]", "IC50": "90.1 to 1000"},
      {"smiles": "Cc1c(OCCCN(C)Cc2ccncc2)cccc1-c1cccc(OCCCN2CC[C@@H](O)C2)c1C", "note": "[Example 2064, (R)-1-(3-((2,2′-dimethyl-3′-(3-(methyl(pyridin-4-ylmethyl)amino)propoxy)-[1,1′-biphenyl]-3-yl)oxy)propyl)pyrrolidin-3-ol]", "IC50": "20.1 to 90"}
    ]},
    {"target": "T1, PD-1/PD-L1 interaction (PD-1-Ig / PD-L1-His)", "experiment": "PD-1/PD-L1 Homogenous Time-Resolved Fluorescence (HTRF) binding assay", "conditions": "numeric IC50; PD-L1-His 10 nM, PD-1-Ig 20 nM; read-out: Range or IC50", "in_short": "as §1", "units": {"IC50": "nM"}, "values": [
      {"smiles": "CC1CCN(C(=O)c2cc(Cl)c(OCc3cccc(-c4cccc(COc5cc(OCc6cncc(C#N)c6)c(C(=O)N6CCC(C)CC6)cc5Cl)c4Cl)c3Cl)cc2OCc2cncc(C#N)c2)CC1", "note": "[Example 80120]", "IC50": 105},
      {"smiles": "Cc1c(COc2cc(OCc3cncc(C#N)c3)c(CN[C@@H](CCO)C(=O)O)cc2Cl)cccc1-c1cccc(COc2cc(OCc3cncc(C#N)c3)c(CN[C@H](CCO)C(=O)O)cc2Cl)c1C", "note": "[Example 40770]", "IC50": 0.04}
    ]}
  ]
}
